# Test results: paper PMC2791885 (Journal of nuclear medicine : official publication, Society …, 2009)
# Experiments:
# [1] = ultrafiltration, 5 control animals; cited from earlier work
# PDE4 = test: PET compartmental modeling of brain and plasma data
# [2] = transient equilibrium, range over scans
structure (smiles),measurement,setting,value
COc1ccc([C@@H]2CNC(=O)C2)cc1OC1CCCC1 [(R)-rolipram],plasma-free fraction (fP),[1],30.5% ± 3.1
same,concentration of free radioligand calculated with Equation 2,PDE4; baseline scans,0.08 to 0.17 nM
same,concentration of free radioligand calculated with Equation 2,PDE4; partially blocked scans,0.29 to 3.00 nM
same,calculated concentration of free ligand in brain,PDE4; [2],0.07 to 5.68 nM
same,calculated concentration of specifically bound ligand in brain,PDE4; [2],3.63 to 88.3 nM
